pIC50, pKd: −log10 of the molar value. Blank lines part the entries; values can stand above or below the molecule they belong to. Active and inactive are the calls of the source. The calls are words filed in the database; no cut-off is given here.
Experiments:
[1] = molecular target: T1, Syntenin-1/Syndecan-2 (Homo sapiens) (UniProt O00560+P34741); test: Inhibition of full length N-terminal GST-tagged human syntenin-1 expressed in Escherichia coli ER2566/syndecan2 (unknown origin) interaction at 200 uM incubated for 16 hrs by HTRF assay relative to control
Syntenin-1/Syndecan-2 = Syntenin-1/Syndecan-2 (Homo sapiens, UniProt O00560); test: Inhibition of full length N-terminal GST-tagged human syntenin-1 expressed in Escherichia coli ER2566/syndecan2 (unknown origin) interaction incubated for 16 hrs by HTRF assay
[2] = molecular target: GRASP55-JAMB (Homo sapiens) (UniProt Q9H8Y8+P57087); test: Inhibition of N-terminal GST-tagged GRASP55 (unknown origin) expressed in Escherichia coli BL21 (DE3) cells/JAM-B (unknown origin) complex incubated for 16 hrs by HTRF assay
MDA-MB-231 [3] = test: Inhibition of cell migration in wild-type human MDA-MB-231 cells assessed as decrease in migration speed at 1 to 10 uM incubated for 24 hrs by 2D phase contrast video microscopic analysis; type: functional, cell-based; details: dose 1-10 µM
MDA-MB-231 [4] = test: Inhibition of cell migration in human MDA-MB-231 cells with syntenin CRISPR/Cas9 knockout assessed as decrease in euclidean distance at 100 uM incubated for 24 hrs by 2D phase contrast video microscopic analysis; type: functional, cell-based
MDA-MB-231 [5] = test: Inhibition of cell migration in human MDA-MB-231 cells with syntenin CRISPR/Cas9 knockout assessed as decrease in migration speed at 100 uM incubated for 24 hrs by 2D phase contrast video microscopic analysis; type: functional, cell-based
MDA-MB-231 [6] = test: Inhibition of cell migration in wild-type human MDA-MB-231 cells assessed as decrease in euclidean distance at 1 to 10 uM incubated for 24 hrs by 2D phase contrast video microscopic analysis; type: functional, cell-based; details: dose 1-10 µM
MDA-MB-231 [7] = test: Inhibition of cell migration in wild-type human MDA-MB-231 cells assessed as decrease in migration speed at 100 uM incubated for 24 hrs by 2D phase contrast video microscopic analysis; type: functional, cell-based
MDA-MB-231 [8] = test: Cytotoxicity against wild-type human MDA-MB-231 cells assessed as reduction in cell viability upto 100 uM measured after 48 hrs by Annexin V-FITC staining based flow cytometric analysis; type: functional
Syntenin-1 = molecular target: T2, Syntenin-1 (Homo sapiens, UniProt O00560); test: Binding affinity to full length N-terminal GST-tagged human syntenin-1 expressed in Escherichia coli ER2566 assessed as dissociation constant by ITC analysis
T2 sequence (O00560 whole entry): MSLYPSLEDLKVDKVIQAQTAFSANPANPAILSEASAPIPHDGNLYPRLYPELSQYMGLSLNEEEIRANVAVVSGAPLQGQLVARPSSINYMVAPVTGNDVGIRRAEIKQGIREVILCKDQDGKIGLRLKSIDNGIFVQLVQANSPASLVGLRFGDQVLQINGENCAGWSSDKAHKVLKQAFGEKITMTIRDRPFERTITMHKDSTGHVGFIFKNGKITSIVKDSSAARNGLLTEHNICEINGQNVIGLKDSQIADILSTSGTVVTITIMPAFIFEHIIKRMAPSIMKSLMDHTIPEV

MDA-MB-231 [9] = test: Inhibition of cell migration in wild-type human MDA-MB-231 cells assessed as decrease in euclidean distance at 100 uM incubated for 24 hrs by 2D phase contrast video microscopic analysis; type: functional, cell-based
MDA-MB-231 [10] = test: Cytotoxicity against human MDA-MB-231 cells with syntenin CRISPR/Cas9 knockout assessed as reduction in cell viability upto 100 uM measured after 48 hrs by Annexin V-FITC staining based flow cytometric analysis; type: functional
[11] = molecular target: ERBIN-P0071 (Homo sapiens) (UniProt Q96RT1+Q99569); test: Inhibition of N-terminal GST-tagged Erbin (unknown origin) expressed in Escherichia coli BL21 (DE3) cells/P0071 (unknown origin) complex incubated for 16 hrs by HTRF assay
[12] = molecular target: T1, Syntenin-1/Syndecan-2 (Homo sapiens); test: Inhibition of full length N-terminal GST-tagged human syntenin-1 expressed in Escherichia coli ER2566/syndecan2 (unknown origin) interaction at 200 uM incubated for 16 hrs in the presence of NP-40 by HTRF assay

Syntenin-1/Syndecan-2, sequence (P34741 whole entry, one chain of several, further chain): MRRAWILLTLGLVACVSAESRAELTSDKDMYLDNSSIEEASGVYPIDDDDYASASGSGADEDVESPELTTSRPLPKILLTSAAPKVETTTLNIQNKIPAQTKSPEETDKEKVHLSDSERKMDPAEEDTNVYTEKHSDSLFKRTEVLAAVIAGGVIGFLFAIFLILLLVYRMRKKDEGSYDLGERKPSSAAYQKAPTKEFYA
GRASP55-JAMB (Homo sapiens), sequence (P57087 whole entry, looked up, other chains not shown): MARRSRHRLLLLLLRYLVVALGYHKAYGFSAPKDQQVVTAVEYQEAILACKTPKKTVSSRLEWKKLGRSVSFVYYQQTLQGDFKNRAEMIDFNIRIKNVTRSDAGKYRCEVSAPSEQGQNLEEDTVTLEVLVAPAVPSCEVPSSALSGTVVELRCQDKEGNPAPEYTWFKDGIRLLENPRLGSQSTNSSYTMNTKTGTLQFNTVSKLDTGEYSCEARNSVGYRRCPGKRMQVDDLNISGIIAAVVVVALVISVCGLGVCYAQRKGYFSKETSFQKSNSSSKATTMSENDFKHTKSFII
ERBIN-P0071 (Homo sapiens), sequence (Q96RT1 whole entry, looked up): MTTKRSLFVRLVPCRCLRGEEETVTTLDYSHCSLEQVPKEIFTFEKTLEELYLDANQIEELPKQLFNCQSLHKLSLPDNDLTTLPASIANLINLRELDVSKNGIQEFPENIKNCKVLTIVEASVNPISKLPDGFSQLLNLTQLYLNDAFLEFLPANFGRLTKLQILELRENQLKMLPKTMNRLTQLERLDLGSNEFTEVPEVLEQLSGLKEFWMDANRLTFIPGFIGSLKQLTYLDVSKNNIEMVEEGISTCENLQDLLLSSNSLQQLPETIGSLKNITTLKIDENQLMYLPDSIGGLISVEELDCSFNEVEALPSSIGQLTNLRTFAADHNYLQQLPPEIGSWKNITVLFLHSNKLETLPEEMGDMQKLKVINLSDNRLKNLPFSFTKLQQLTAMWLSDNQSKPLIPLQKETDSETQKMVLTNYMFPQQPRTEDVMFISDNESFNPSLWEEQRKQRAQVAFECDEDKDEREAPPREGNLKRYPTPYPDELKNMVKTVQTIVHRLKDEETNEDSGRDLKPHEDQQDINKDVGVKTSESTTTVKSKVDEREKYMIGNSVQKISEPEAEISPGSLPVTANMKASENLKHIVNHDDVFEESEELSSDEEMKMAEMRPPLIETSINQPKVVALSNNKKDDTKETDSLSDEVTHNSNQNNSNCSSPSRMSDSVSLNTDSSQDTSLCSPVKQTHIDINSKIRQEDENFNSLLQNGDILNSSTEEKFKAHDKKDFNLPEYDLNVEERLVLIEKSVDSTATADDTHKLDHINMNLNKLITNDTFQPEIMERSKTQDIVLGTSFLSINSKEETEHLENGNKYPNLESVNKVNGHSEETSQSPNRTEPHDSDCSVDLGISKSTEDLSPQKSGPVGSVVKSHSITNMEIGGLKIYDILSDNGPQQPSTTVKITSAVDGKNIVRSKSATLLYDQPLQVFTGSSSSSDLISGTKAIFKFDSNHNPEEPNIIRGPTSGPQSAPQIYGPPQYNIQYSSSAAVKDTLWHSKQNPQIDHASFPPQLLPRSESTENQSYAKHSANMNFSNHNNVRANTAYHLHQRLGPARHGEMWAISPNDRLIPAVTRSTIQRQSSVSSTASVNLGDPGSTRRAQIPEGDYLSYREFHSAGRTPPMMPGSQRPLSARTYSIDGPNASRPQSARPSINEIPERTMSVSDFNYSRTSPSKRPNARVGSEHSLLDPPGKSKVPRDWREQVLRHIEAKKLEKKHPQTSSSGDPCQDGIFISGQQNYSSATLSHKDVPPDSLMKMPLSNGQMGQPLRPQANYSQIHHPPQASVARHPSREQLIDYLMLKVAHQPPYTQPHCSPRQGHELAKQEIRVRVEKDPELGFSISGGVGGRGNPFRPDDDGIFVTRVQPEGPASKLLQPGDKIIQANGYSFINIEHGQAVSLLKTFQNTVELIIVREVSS
ERBIN-P0071 (Homo sapiens), sequence (Q99569 whole entry, looked up): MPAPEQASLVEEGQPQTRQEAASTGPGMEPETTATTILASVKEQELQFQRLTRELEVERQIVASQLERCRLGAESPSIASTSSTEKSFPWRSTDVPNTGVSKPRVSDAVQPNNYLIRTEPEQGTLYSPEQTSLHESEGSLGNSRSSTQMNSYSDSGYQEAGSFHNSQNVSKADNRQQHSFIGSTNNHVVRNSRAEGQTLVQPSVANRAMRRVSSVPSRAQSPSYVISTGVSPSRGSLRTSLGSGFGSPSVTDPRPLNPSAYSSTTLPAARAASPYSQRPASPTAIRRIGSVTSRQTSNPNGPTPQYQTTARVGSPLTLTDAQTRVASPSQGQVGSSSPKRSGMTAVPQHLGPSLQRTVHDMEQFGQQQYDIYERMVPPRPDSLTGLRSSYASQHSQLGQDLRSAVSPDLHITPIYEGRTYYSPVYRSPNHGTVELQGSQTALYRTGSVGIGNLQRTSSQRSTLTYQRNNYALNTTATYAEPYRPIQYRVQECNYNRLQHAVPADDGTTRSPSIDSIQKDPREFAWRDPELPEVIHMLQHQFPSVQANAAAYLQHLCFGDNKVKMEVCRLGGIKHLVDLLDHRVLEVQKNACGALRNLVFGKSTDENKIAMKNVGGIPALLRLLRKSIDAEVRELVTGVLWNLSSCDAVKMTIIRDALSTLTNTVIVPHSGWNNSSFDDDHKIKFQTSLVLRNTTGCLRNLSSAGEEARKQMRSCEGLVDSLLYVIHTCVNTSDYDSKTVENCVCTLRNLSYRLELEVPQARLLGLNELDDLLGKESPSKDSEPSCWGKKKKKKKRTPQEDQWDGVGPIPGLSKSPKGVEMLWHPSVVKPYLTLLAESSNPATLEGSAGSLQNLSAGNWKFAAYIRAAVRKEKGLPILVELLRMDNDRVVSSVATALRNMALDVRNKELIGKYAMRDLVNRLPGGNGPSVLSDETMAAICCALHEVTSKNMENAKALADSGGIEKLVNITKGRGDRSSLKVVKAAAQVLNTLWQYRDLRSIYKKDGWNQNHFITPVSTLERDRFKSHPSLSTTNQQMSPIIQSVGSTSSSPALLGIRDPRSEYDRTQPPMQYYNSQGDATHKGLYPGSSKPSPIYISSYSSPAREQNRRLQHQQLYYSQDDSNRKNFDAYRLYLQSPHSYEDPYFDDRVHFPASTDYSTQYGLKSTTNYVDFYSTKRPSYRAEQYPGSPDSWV

SMILES: COc1ccccc1NC(=O)N1CCCC(c2nc(O)c3nnn(Cc4ccc(C)cc4)c3n2)C1 (centres undefined)
inhibition [1]: > 60%

SMILES: C[C@H](NC(=O)[C@H](Cc1ccc(-c2cc(CO)ccc2F)cc1)N1Cc2cc(Br)ccc2C1=O)C(=O)O
pIC50 (Syntenin-1/Syndecan-2): 5.82

SMILES: CC(=O)c1ccc(F)c(-c2ccc(C[C@@H](C(=O)N[C@@H](C)C(=O)O)N3Cc4cc(Br)ccc4C3=O)cc2)c1
inhibition [2]: inactive
inhibition (MDA-MB-231 [3]): Active
inhibition (MDA-MB-231 [4]): inactive
inhibition (MDA-MB-231 [5]): inactive
inhibition (MDA-MB-231 [6]): Active
inhibition (MDA-MB-231 [7]): Active
Activity (MDA-MB-231 [8]): inactive
pKd (Syntenin-1): 5.74
inhibition (MDA-MB-231 [9]): Active
Activity (MDA-MB-231 [10]): inactive
inhibition [11]: inactive
pIC50 (Syntenin-1/Syndecan-2): 6.40

SMILES: CC(C)[C@@H](C(=O)N[C@@H](C)C(=O)O)N1Cc2ccc(Br)cc2C1=O
pIC50 (Syntenin-1/Syndecan-2): < 3.70

SMILES: CC(C)C[C@H](NC(=O)[C@H](Cc1ccccc1)N1Cc2ccccc2C1=O)C(=O)O
pIC50 (Syntenin-1/Syndecan-2): < 3.30

SMILES: COc1cc2cc(C(=O)N(C)CCOc3cccc(Cl)c3)[nH]c2c(OC)c1OC
inhibition [1]: > 60%

SMILES: O=C(O)[C@H](Cc1ccccc1)NC(=O)[C@H](Cc1ccccc1)N1Cc2ccccc2C1=O
pIC50 (Syntenin-1/Syndecan-2): < 3.30

SMILES: CC(C)C[C@@H](C(=O)N[C@@H](Cc1ccccc1)C(=O)O)N1Cc2ccccc2C1=O
pIC50 (Syntenin-1/Syndecan-2): < 3.30

SMILES: CC(C)[C@H](NC(=O)[C@H](C(C)C)N1Cc2ccccc2C1=O)C(=O)O
pIC50 (Syntenin-1/Syndecan-2): < 3.30

SMILES: C[C@H](NC(=O)[C@H](Cc1ccc2ccccc2c1)N1Cc2cc(Br)ccc2C1=O)C(=O)O
pIC50 (Syntenin-1/Syndecan-2): 5.28

SMILES: CC(=O)Nc1ccc(-c2ccc(C[C@@H](C(=O)N[C@@H](C)C(=O)O)N3Cc4ccccc4C3=O)cc2)cc1
pIC50 (Syntenin-1/Syndecan-2): 5.11

SMILES: COc1ccc(C[C@@H](C(=O)N[C@@H](C)C(=O)O)N2Cc3ccccc3C2=O)cc1
pIC50 (Syntenin-1/Syndecan-2): 3.89

SMILES: CC(C)[C@@H](C(=O)N[C@@H](C)C(=O)O)N1Cc2cc(Br)ccc2C1=O
pIC50 (Syntenin-1/Syndecan-2): 4.70

SMILES: CCOC(=O)C(Cc1c[nH]c2ccccc12)NC(=O)C(Cc1ccccc1)N1C(=O)c2ccccc2C1=O (centres undefined)
inhibition [1]: > 60%

SMILES: C[C@H](NC(=O)[C@H](Cc1ccc(-c2ccc3occc(=O)c3c2)cc1)N1Cc2ccccc2C1=O)C(=O)O
pIC50 (Syntenin-1/Syndecan-2): 5.40

SMILES: C[C@H](NC(=O)[C@H](Cc1c[nH]c2ccccc12)N1Cc2ccccc2C1=O)C(=O)O
pIC50 (Syntenin-1/Syndecan-2): 4.48

SMILES: CC(C)[C@H](NC(=O)[C@H](Cc1ccccc1)N1Cc2ccccc2C1=O)C(=O)O
inhibition (MDA-MB-231 [7]): Active
inhibition (MDA-MB-231 [9]): Active
pIC50 (Syntenin-1/Syndecan-2): < 3.30

SMILES: CC[C@H](C)[C@H](NC(=O)[C@H](CC(C)C)N1Cc2ccccc2C1=O)C(=O)O
pIC50 (Syntenin-1/Syndecan-2): < 3.30

SMILES: CC(Oc1ccc(-c2cc(N)nc3[nH]ccc23)cc1Cl)C(=O)O (centres undefined)
inhibition [1]: > 60%

SMILES: C[C@H](NC(=O)[C@H](Cc1ccc(Cl)cc1)N1Cc2ccccc2C1=O)C(=O)O
pIC50 (Syntenin-1/Syndecan-2): 4.11

SMILES: C[C@H](NC(=O)[C@H](Cc1ccc(-c2cc(CO)ccc2F)cc1)N1Cc2ccccc2C1=O)C(=O)O
pIC50 (Syntenin-1/Syndecan-2): 5.28

SMILES: CC(C)[C@@H](C(=O)N[C@@H](C)C(=O)O)N1Cc2c(Cl)cccc2C1=O
pIC50 (Syntenin-1/Syndecan-2): < 3.70

SMILES: CCOc1nc2ccccc2nc1N1CCCC(C(=O)N2CCc3ccccc3C2)C1 (centres undefined)
inhibition [1]: > 60%

SMILES: C[C@H](NC(=O)[C@H](Cc1ccccc1)NC(=O)c1cc2cc(Cl)ccc2n1C)C(=O)O
inhibition [1]: > 60%

SMILES: C[C@H](NC(=O)[C@H](Cc1ccc(-c2ccccc2F)cc1)N1Cc2ccccc2C1=O)C(=O)O
pIC50 (Syntenin-1/Syndecan-2): 5.00

SMILES: C[C@H](NC(=O)[C@H](Cc1ccc(Br)cc1)N1Cc2ccccc2C1=O)C(=O)O
pIC50 (Syntenin-1/Syndecan-2): 4.46

SMILES: CC(C)C[C@@H](C(=O)N[C@@H](C)C(=O)O)N1Cc2ccccc2C1=O
pIC50 (Syntenin-1/Syndecan-2): 3.67

SMILES: CC(C)[C@@H](C(=O)N[C@@H](C)C(=O)O)N1Cc2ccccc2C1=O
inhibition [2]: inactive
inhibition (MDA-MB-231 [4]): inactive
inhibition [12]: Active
inhibition (MDA-MB-231 [5]): inactive
inhibition (MDA-MB-231 [7]): Active
Activity (MDA-MB-231 [8]): inactive
inhibition [1]: > 60%
inhibition (MDA-MB-231 [9]): Active
Activity (MDA-MB-231 [10]): inactive
inhibition [11]: inactive
pIC50 (Syntenin-1/Syndecan-2): 4.12

SMILES: C[C@H](NC(=O)[C@H](Cc1ccccc1)N1Cc2ccccc2C1=O)C(=O)O
pIC50 (Syntenin-1/Syndecan-2): 4.17

SMILES: CC[C@H](C)[C@H](NC(=O)[C@H](C(C)C)N1Cc2ccccc2C1=O)C(=O)O
pIC50 (Syntenin-1/Syndecan-2): < 3.30

SMILES: CC(=O)Nc1ccc(-c2ccc(C[C@@H](C(=O)N[C@@H](C)C(=O)O)N3Cc4cc(Br)ccc4C3=O)cc2)cc1
pIC50 (Syntenin-1/Syndecan-2): 6.09

SMILES: C[C@H](NC(=O)[C@H](Cc1ccc(C#N)cc1)N1Cc2ccccc2C1=O)C(=O)O
pIC50 (Syntenin-1/Syndecan-2): 3.74

The remaining lines, values ahead:

pIC50 (Syntenin-1/Syndecan-2): 4.89
SMILES: C[C@H](NC(=O)[C@H](Cc1ccc2ccccc2c1)N1Cc2ccccc2C1=O)C(=O)O

pIC50 (Syntenin-1/Syndecan-2): < 3.30
SMILES: CC(C)C[C@@H](C(=O)N[C@H](C(=O)O)C(C)C)N1Cc2ccccc2C1=O

pIC50 (Syntenin-1/Syndecan-2): < 3.30
SMILES: CC[C@H](C)[C@H](NC(=O)[C@H](Cc1ccccc1)N1Cc2ccccc2C1=O)C(=O)O

pIC50 (Syntenin-1/Syndecan-2): 5.38
SMILES: CC(=O)c1ccc(F)c(-c2ccc(C[C@@H](C(=O)N[C@@H](C)C(=O)O)N3Cc4ccccc4C3=O)cc2)c1

pIC50 (Syntenin-1/Syndecan-2): 5.00
SMILES: COc1ccc(F)c(-c2ccc(C[C@@H](C(=O)N[C@@H](C)C(=O)O)N3Cc4ccccc4C3=O)cc2)c1

pIC50 (Syntenin-1/Syndecan-2): 4.85
SMILES: CC(C)[C@@H](C(=O)N[C@@H](C)C(=O)O)N1Cc2cc(Cl)ccc2C1=O

pIC50 (Syntenin-1/Syndecan-2): < 3.70
SMILES: Cc1ccc(C[C@@H](C(=O)N[C@@H](C)C(=O)O)N2Cc3ccccc3C2=O)cc1

inhibition [1]: > 60%
SMILES: CCOc1ccc2[nH]c(=O)c(CN(C3CCCCC3)C(CC)c3nnnn3C(C)(C)C)cc2c1 (centres undefined)

pIC50 (Syntenin-1/Syndecan-2): < 3.30
SMILES: CC(C)C[C@H](NC(=O)[C@H](CC(C)C)N1Cc2ccccc2C1=O)C(=O)O

pIC50 (Syntenin-1/Syndecan-2): < 3.30
SMILES: CC(C)[C@@H](C(=O)N[C@@H](Cc1ccccc1)C(=O)O)N1Cc2ccccc2C1=O

pIC50 (Syntenin-1/Syndecan-2): < 3.30
SMILES: CC(C)C[C@H](NC(=O)[C@H](C(C)C)N1Cc2ccccc2C1=O)C(=O)O

pIC50 (Syntenin-1/Syndecan-2): 4.20
SMILES: C[C@H](NC(=O)C(CSCc1ccccc1)N1Cc2ccccc2C1=O)C(=O)O (single isomer, unassigned)

pIC50 (Syntenin-1/Syndecan-2): 4.36
SMILES: C[C@H](NC(=O)[C@H](Cc1ccc(O)cc1)N1Cc2ccccc2C1=O)C(=O)O

pIC50 (Syntenin-1/Syndecan-2): 5.20
SMILES: C[C@H](NC(=O)[C@H](Cc1ccc(-c2ccc3c(c2)C(=O)N(C)C3)cc1)N1Cc2ccccc2C1=O)C(=O)O
